Source: PubChem BioAssay AID248 (DTP/NCI, 2004)
Values joined by “and” are separate entries in the source; they are usually repeats but may differ in a detail not shown here. Equal entries are not always repeated. Inconclusive results and toxic doses are left out. Cut-off read from the data, not from the text of the source: active = T/C of 150% or more; inactive = T/C below 125%.

System: L1210 leukemia ip in BDF1 mice, survival T/C
Experiment: NCI In Vivo Anticancer Drug Screen. Data for tumor model L1210 Leukemia (intraperitoneal) in B6D2F1 (BDF1) mice
Conditions: endpoint: mean survival time, higher = longer survival
In short: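 Antitumor effect is assessed in tumor-bearing animals. Survival in the compound arm is compared with a vehicle-dosed control arm and expressed as their quotient.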

[1] = dose: 12.5 mg/kg/injection, schedule: Q01DX009 (ip), vehicle: Klucel (hydroxypropylcellulose) (HPC)
[2] = dose: 25.0 mg/kg/injection, schedule: Q01DX009 (ip), vehicle: Klucel (hydroxypropylcellulose) (HPC)
[3] = dose: 50.0 mg/kg/injection, schedule: Q01DX009 (ip), vehicle: Klucel (hydroxypropylcellulose) (HPC)
[4] = dose: 100.0 mg/kg/injection, schedule: Q01DX009 (ip), vehicle: Klucel (hydroxypropylcellulose) (HPC)
[5] = dose: 100.0 mg/kg/injection, schedule: Q04DX003 (ip), vehicle: Klucel (hydroxypropylcellulose) (HPC)
[6] = dose: 200.0 mg/kg/injection, schedule: Q01DX009 (ip), vehicle: Klucel (hydroxypropylcellulose) (HPC)
[7] = dose: 200.0 mg/kg/injection, schedule: Q04DX003 (ip), vehicle: Klucel (hydroxypropylcellulose) (HPC)
[8] = dose: 400.0 mg/kg/injection, schedule: Q01DX009 (ip), vehicle: Klucel (hydroxypropylcellulose) (HPC)
[9] = dose: 100.0 mg/kg/injection, schedule: Q01DX009 (ip), vehicle: saline with Tween-80
[10] = dose: 100.0 mg/kg/injection, schedule: Q04DX003 (ip), vehicle: saline with Tween-80
[11] = dose: 200.0 mg/kg/injection, schedule: Q01DX009 (ip), vehicle: saline with Tween-80
[12] = dose: 200.0 mg/kg/injection, schedule: Q04DX003 (ip), vehicle: saline with Tween-80
[13] = dose: 400.0 mg/kg/injection, schedule: Q01DX009 (ip), vehicle: saline with Tween-80
[14] = dose: 400.0 mg/kg/injection, schedule: Q04DX003 (ip), vehicle: saline with Tween-80
[15] = dose: 50.0 mg/kg/injection, schedule: Q01DX001 (ip), vehicle: carboxymethylcellulose (CMC)
[16] = dose: 100.0 mg/kg/injection, schedule: Q01DX001 (ip), vehicle: carboxymethylcellulose (CMC)
[17] = dose: 200.0 mg/kg/injection, schedule: Q01DX001 (ip), vehicle: carboxymethylcellulose (CMC)
[18] = dose: 400.0 mg/kg/injection, schedule: Q01DX001 (ip), vehicle: carboxymethylcellulose (CMC)
[19] = dose: 100.0 mg/kg/injection, schedule: Q04DX002 (ip), vehicle: saline with Tween-80
[20] = dose: 200.0 mg/kg/injection, schedule: Q04DX002 (ip), vehicle: saline with Tween-80
[21] = dose: 400.0 mg/kg/injection, schedule: Q04DX002 (ip), vehicle: saline with Tween-80
[22] = dose: 50.0 mg/kg/injection, schedule: Q04DX002 (ip), vehicle: Klucel (hydroxypropylcellulose) (HPC)
[23] = dose: 100.0 mg/kg/injection, schedule: Q04DX002 (ip), vehicle: Klucel (hydroxypropylcellulose) (HPC)
[24] = dose: 200.0 mg/kg/injection, schedule: Q04DX002 (ip), vehicle: Klucel (hydroxypropylcellulose) (HPC)
[25] = dose: 100.0 mg/kg/injection, schedule: Q01DX009 (ip), vehicle: saline
[26] = dose: 200.0 mg/kg/injection, schedule: Q01DX009 (ip), vehicle: saline
[27] = dose: 400.0 mg/kg/injection, schedule: Q01DX009 (ip), vehicle: saline

Measured: T/C

COc1cc(Cc2cnc(N)nc2N)cc(OC)c1OC
inactive: dose: 50.0 mg/kg/injection, schedule: Q01DX001 (ip), vehicle: saline 101 % of control | dose: 100.0 mg/kg/injection, schedule: Q01DX001 (ip), vehicle: saline 92 % of control | dose: 200.0 mg/kg/injection, schedule: Q01DX001 (ip), vehicle: saline 100 % of control | dose: 400.0 mg/kg/injection, schedule: Q01DX001 (ip), vehicle: saline 97 % of control

COc1ccc(C(=Nc2ccc(C)cc2)c2ccccc2)cc1
inactive: dose: 12.0 mg/kg/injection, schedule: Q01DX009 (ip), vehicle: Klucel (hydroxypropylcellulose) (HPC) 105 % of control | [1] 102 % of control | [2] 105 % of control | [3] 97 % of control and 113 % of control | [4] 122 % of control | [5] 101 % of control | [6] 107 % of control | [7] 98 % of control | [8] 107 % of control | dose: 400.0 mg/kg/injection, schedule: Q04DX003 (ip), vehicle: Klucel (hydroxypropylcellulose) (HPC) 98 % of control

Cc1ccccc1NC(=O)c1ccc([N+](=O)[O-])cc1
inactive: [9] 106 % of control | [10] 98 % of control | [11] 101 % of control | [12] 94 % of control | [13] 101 % of control | [14] 98 % of control

CC1(C(N)=O)CCC(C(=O)O)C1(C)C (configuration not stated)
inactive: [15] 103 % of control | [16] 109 % of control | [17] 103 % of control | [18] 103 % of control

C=C=[CH][Sn]([c]1ccccc1)([c]1ccccc1)[c]1ccccc1
inactive: [1] 100 % of control | dose: 12.5 mg/kg/injection, schedule: Q04DX003 (ip), vehicle: Klucel (hydroxypropylcellulose) (HPC) 99 % of control | [2] 102 % of control | dose: 25.0 mg/kg/injection, schedule: Q04DX003 (ip), vehicle: Klucel (hydroxypropylcellulose) (HPC) 106 % of control | [3] 89 % of control | dose: 50.0 mg/kg/injection, schedule: Q04DX003 (ip), vehicle: Klucel (hydroxypropylcellulose) (HPC) 99 % of control

ClC1(Cl)C2/C=C/CCCCC21 (configuration not stated)
inactive: dose: 100.0 mg/kg/injection, schedule: Q01DX005 (ip), vehicle: saline with Tween-80 105 % of control | [19] 92 % of control | dose: 200.0 mg/kg/injection, schedule: Q01DX005 (ip), vehicle: saline with Tween-80 92 % of control | [20] 113 % of control | dose: 400.0 mg/kg/injection, schedule: Q01DX005 (ip), vehicle: saline with Tween-80 92 % of control | [21] 95 % of control

C1=C2CC3(CCC2C(OCc2ccccc2)CC1)OCCO3 (configuration not stated)
inactive: dose: 50.0 mg/kg/injection, schedule: Q01DX009 (ip), vehicle: saline with Tween-80 100 % of control | [9] 92 % of control | [11] 94 % of control

O=[N+]([O-])c1cccc(OCCOc2ccc(S(=O)(=O)F)cc2)c1
inactive: [10] 106 % of control | [12] 88 % of control | [14] 93 % of control

CCOc1ccc(NC(=O)Oc2ccc(C(=O)OC)cc2)cc1
inactive: dose: 100.0 mg/kg/injection, schedule: Q01DX001 (ip), vehicle: saline with Tween-80 93 % of control | [9] 101 % of control and 103 % of control | [19] 103 % of control and 92 % of control | [10] 105 % of control | dose: 200.0 mg/kg/injection, schedule: Q01DX001 (ip), vehicle: saline with Tween-80 91 % of control | [11] 100 % of control and 103 % of control | [20] 95 % of control and 92 % of control | [12] 103 % of control | dose: 400.0 mg/kg/injection, schedule: Q01DX001 (ip), vehicle: saline with Tween-80 91 % of control | [13] 93 % of control and 94 % of control | [21] 103 % of control | [14] 105 % of control

CC1=NC(C)CNC(C)(C)CC(C)=NC(C)CNC(C)(C)C1 (configuration not stated)
inactive: dose: 25.0 mg/kg/injection, schedule: Q04DX002 (ip), vehicle: Klucel (hydroxypropylcellulose) (HPC) 88 % of control | [22] 94 % of control | [23] 112 % of control

Nc1nc(N)c2[nH]c(CCCc3ccccc3)nc2n1
inactive: [22] 98 % of control | [23] 98 % of control | [24] 98 % of control

COCC(O)CC#N (configuration not stated)
inactive: [25] 117 % of control | [26] 113 % of control | [27] 111 % of control

O=[N+]([O-])c1ccc(C#[C][Hg][C]#Cc2ccc([N+](=O)[O-])cc2)cc1
inactive: dose: 100.0 mg/kg/injection, schedule: Q04DX003 (ip), vehicle: saline 95 % of control | dose: 200.0 mg/kg/injection, schedule: Q04DX003 (ip), vehicle: saline 91 % of control | dose: 400.0 mg/kg/injection, schedule: Q04DX003 (ip), vehicle: saline 98 % of control

O/N=C(\c1ccccc1)C(O)c1ccccc1 (configuration not stated)
inactive: [15] 113 % of control | [16] 105 % of control | [17] 105 % of control | [18] 102 % of control

O=C(Nc1ccc(Nc2ccccc2)cc1)Nc1cccc2ccccc12
inactive: dose: 100.0 mg/kg/injection, schedule: Q01DX001 (ip), vehicle: Klucel (hydroxypropylcellulose) (HPC) 97 % of control | [4] 100 % of control | [25] 100 % of control | [23] 98 % of control and 105 % of control | [5] 97 % of control | dose: 200.0 mg/kg/injection, schedule: Q01DX001 (ip), vehicle: Klucel (hydroxypropylcellulose) (HPC) 92 % of control | [6] 90 % of control | [26] 100 % of control | [24] 93 % of control and 94 % of control | [7] 92 % of control | dose: 400.0 mg/kg/injection, schedule: Q01DX001 (ip), vehicle: Klucel (hydroxypropylcellulose) (HPC) 95 % of control | [8] 100 % of control | [27] 88 % of control | dose: 400.0 mg/kg/injection, schedule: Q04DX002 (ip), vehicle: Klucel (hydroxypropylcellulose) (HPC) 98 % of control and 102 % of control

NC(CSS(=O)(=O)O)=NCC1CC2CCC1C2 (configuration not stated)
inactive: dose: 6.25 mg/kg/injection, schedule: Q04DX002 (ip), vehicle: saline with Tween-80 100 % of control | dose: 12.5 mg/kg/injection, schedule: Q04DX002 (ip), vehicle: saline with Tween-80 110 % of control | dose: 25.0 mg/kg/injection, schedule: Q04DX002 (ip), vehicle: saline with Tween-80 106 % of control
